# Data taken from patent US20210137903A1, “ANTI-ANDROGENS FOR THE TREATMENT OF PROSTRATE CANCER” (priority 2019, published 2021).
# Legend:
# [1] = tested on: non-castrate hormone-sensitive and bicalutamide-resistant human prostate cancer xenograft models; settings: cited from earlier work
# [2] = Biopharmaceutics Classification System classification; type: physicochemical; settings: highly permeable and poorly soluble
# Description: Apalutamide is a Biopharmaceutics Classification System Class II drug (highly permeable and poorly soluble). The commercialized formulation is a spray dried powder of amorphous apalutamide.
# [3] = Single-dose 14C-apalutamide absolute bioavailability and microtracer study; parameters: species or system human; settings: in vivo
# [4] = Safety in healthy subjects (previous single-dose studies); type: in vivo
# Description: Healthy subjects are commonly selected for PK studies as they allow for assessments in the absence of confounding factors such as comorbid conditions and concomitant medications. In this study, only male subjects were enrolled as the target patient population for clinical use of apalutamide consists of male subjects with CRPC.
# The potential risks to subjects in this study included exposure to study drugs, with a potential for AEs. […] Subjects were monitored for AEs throughout the study, and an expert investigator was chosen to conduct the study. In each treatment period, subjects were confined to the study center until completion of the 72-hour PK assessments on Day 4 and returned to the study center for additional assessments up to Day 8 after intake of the study drug. Subject's safety was monitored at regular intervals throughout the study by physical examination, laboratory safety assessments, ECG and vital signs.
# [5] = Example 1 relative bioavailability study: safety evaluations; type: in vivo, human
# Description: Safety: Safety was evaluated throughout the study by means of adverse events (AEs), laboratory safety (hematology and serum chemistry), electrocardiograms (ECGs), vital signs (blood pressure, pulse, respiratory rate, and body temperature), and physical examinations (see the Time and Events Schedule in FIG. 1 for details).
# Safety: Baseline for all laboratory evaluations, 12-lead ECG measurements, and vital signs were defined as the last evaluation done before the first study drug administration. Safety was evaluated by examining the incidence and type of adverse events, and changes in clinical laboratory test values, physical examination results, 12-lead ECGs, and vital sign measurements from the screening phase through study completion, including the washout intervals and the End-of-Study visit.
# All subjects who were randomly assigned to treatment and received at least one dose of the study drug were included in the safety analysis.
# The verbatim terms used in the CRF by investigators to identify adverse events was coded using the Medical Dictionary for Regulatory Activities (MedDRA). All reported adverse events with onset during the treatment phase (ie, treatment-emergent adverse events, and adverse events that have worsened since baseline) were included in the analysis. For each adverse event, the percentage of subjects who experience at least 1 occurrence of the given event was summarized by treatment group.
# The severity assessment for an adverse event/serious adverse event was completed using the NCI-CTCAE Version 5.0. Any adverse event/serious adverse event not listed in the NCI-CTCAE was graded by the investigator using the standard grades as follows: […]
# [6] = Dosing accuracy, chemical stability and appearance of apalutamide tablets dispersed in applesauce (UHPLC); type: physicochemical
# Description: The tablet core weight was 700 mg. […] Appearance was determined visually. Dosing accuracy and chemical stability (the concentration and impurities) were measured using the following UHPLC Procedure. The reagents used in the UHPLC procedure were demineralized water, ammonium acetate, trifluoroacetic acid and acetonitrile. Mobile Phase A was a 10 mM NH4Ac+01% TFA/Acetonitrile (90/10 v/v) solution prepared as follows. 0.77 g Ammonium acetate (NH4Ac) was transferred into a 1000 mL volumetric flask. […] Mobile Phase B was acetonitrile. Sample solutions were prepared as described in the individual examples which follow hereinafter. [table] For chemical stability (chromatographic characteristics) the identity of impurities were assigned based on comparison of their Relative Retention Times (RRT) to known retention times, or retention times determined using reference solutions. […] The mixture was gently mixed in the container with a spatula for 10 seconds and the time recorded. The hold time of the sample was calculated against the moment the tablets were added to the mixture. After 15 minutes, the mixture was again gently mixed with a spatula for 10 seconds and the time recorded. After an additional 15 minutes, the mixture was again gently mixed with a spatula for until a uniform mixture was formed (at least 10 seconds) and the time recorded. […]
# CRPC = test: Phase II clinical trial, apalutamide 240 mg continuous daily dosing in CRPC; type: in vivo, human; settings: for patients with 12-week PSA declines of >50% or more from baseline: 240 mg daily
# Description: The primary objective was to assess antitumor activity and PSA kinetics as defined by the Prostate Cancer Clinical Trials Working Group (PCWG2) criteria. […] The median time to PSA progression was not reached for the TN cohort during the preliminary 12-week period, and was 16 weeks in the PA cohort.
# The median time to PSA progression was not reached in this observed time period.
structure (smiles),measurement,setting,value
"CNC(=O)c1ccc(N2C(=S)N(c3cnc(C#N)c(C(F)(F)F)c3)C(=O)C23CCC3)cc1F [apalutamide, 4-[7-(6-cyano-5-trifluoromethylpyridin-3-yl)-8-oxo-6-thioxo-5,7-diazaspiro[3.4]oct-5-yl]-2-fluoro-N-methylbenzamide]",tumor regression,[1],partial or complete tumor regression
same,Biopharmaceutics Classification System class,[2],Class II
same,14C-radioactivity excreted via feces (arithmetic mean),[3],24.3%
same,total 14C-radioactivity excreted in urine (arithmetic mean),[3],64.2%
same,total administered 14C-radioactive dose recovered,[3],88.9%
same,testosterone and luteinizing hormone (LH),"[4]; healthy men, 240 mg",transient increase
same,TSH,"[4]; healthy men, single dose 240 mg",Reversible mild increases
same,tolerability of single doses up to 240 mg,"[4]; human, in vivo",well tolerated
same,deaths or serious TEAEs,[5]; in vivo,no deaths or serious TEAEs
same,overall safety and tolerability of 240 mg as whole tablets and as dispersed tablets in applesauce,[5]; in vivo,safe and generally well tolerated
same,subjects with QTcB or QTcF increase of >60 ms from baseline,[5]; in vivo,No subjects
same,subjects with QTcB or QTcF values of >480 ms,[5]; in vivo,No subjects
same,AE leading to treatment discontinuation,[5]; n (%),1 (8.3%)
same,AE leading to treatment discontinuation: >=Grade 3,[5]; n (%),0
same,AE leading to treatment discontinuation: Drug-related to Treatment A,[5]; n (%),0
same,AE leading to treatment discontinuation: Drug-related to Treatment B,[5]; n (%),1 (8.3%)
same,AE leading to treatment discontinuation: Grade 1,[5]; n (%),1 (8.3%)
same,AE leading to treatment discontinuation: Grade 2,[5]; n (%),0
same,Serious TEAE: >=Grade 3,[5]; n (%),0
same,Serious TEAE: Drug-related to Treatment A,[5]; n (%),0
same,Serious TEAE: Drug-related to Treatment B,[5]; n (%),0
same,Serious TEAE: Grade 1,[5]; n (%),0
same,Serious TEAE: Grade 2,[5]; n (%),0
same,Serious Treatment Emergent Adverse Events,[5]; n (%),0
same,Treatment Emergent Adverse Events: Drug-related to Treatment A,[5]; n (%),4 (33.3%)
same,Treatment Emergent Adverse Events: Drug-related to Treatment B,[5]; n (%),4 (33.3%)
same,subjects with TEAE gynecomastia,[5]; n (%),3 (25.0%)
same,subjects with sexual side effects,[5]; n (%),3 (25.0%)
same,"Treatment Emergent Adverse Events, subjects",[5]; n (%) of subjects treated,5 (41.7%)
same,Treatment Emergent Adverse Events: >=Grade 3,"[5]; worst grade, n (%)",0
same,Treatment Emergent Adverse Events: Grade 1,"[5]; worst grade, n (%)",4 (33.3%)
same,Treatment Emergent Adverse Events: Grade 2,"[5]; worst grade, n (%)",1 (8.3%)
same,time the drug was found to be stable in applesauce,[6],at least 6 hours
same,tolerability,CRPC; 240 mg continuous daily dosing,very well tolerated
same,median time to PSA progression,CRPC; PA cohort,16 weeks
same,median time to PSA progression,"CRPC; TN cohort, preliminary 12-week period",not reached
same,objective response rate (by RECIST),CRPC; TN patients with measurable disease at baseline,63%
same,patients with >50% decline in PSA as compared to baseline,"CRPC; non-metastatic CRPC, 12 weeks",91%
same,patients with >50% decline in PSA,"CRPC; non-metastatic CRPC, 24 weeks",91%
same,patients with >90% decline in PSA,"CRPC; non-metastatic CRPC, 24 weeks",55%
same,median time to PSA progression,"CRPC; non-metastatic CRPC, observed time period",not reached
same,patients with 12-week PSA declines of >50% or more from baseline,CRPC; post-abiraterone (PA) metastatic CRPC cohort,29%
same,patients with 12-week PSA declines of >50% or more from baseline,CRPC; treatment-naive (TN) metastatic CRPC cohort,88%
